From patent US4539150A, “Benzothiazepine derivatives and their methods of preparation” (Mitsui Toatsu Chemicals, Inc., priority 1983, dated 1985) come the findings set out here.

SMILES strings stand for the structures. Where a name gives a salt, the structure may show the parent alone.

In assay [1] the target is T1, angiotensin converting enzyme (ACE) (Oryctolagus cuniculus, UniProt P12822).
T1 construct: Using ACE isolated from rabbit lungs; from tissue; host or cells: rabbit lungs
T1 sequence (P12822 34-1310): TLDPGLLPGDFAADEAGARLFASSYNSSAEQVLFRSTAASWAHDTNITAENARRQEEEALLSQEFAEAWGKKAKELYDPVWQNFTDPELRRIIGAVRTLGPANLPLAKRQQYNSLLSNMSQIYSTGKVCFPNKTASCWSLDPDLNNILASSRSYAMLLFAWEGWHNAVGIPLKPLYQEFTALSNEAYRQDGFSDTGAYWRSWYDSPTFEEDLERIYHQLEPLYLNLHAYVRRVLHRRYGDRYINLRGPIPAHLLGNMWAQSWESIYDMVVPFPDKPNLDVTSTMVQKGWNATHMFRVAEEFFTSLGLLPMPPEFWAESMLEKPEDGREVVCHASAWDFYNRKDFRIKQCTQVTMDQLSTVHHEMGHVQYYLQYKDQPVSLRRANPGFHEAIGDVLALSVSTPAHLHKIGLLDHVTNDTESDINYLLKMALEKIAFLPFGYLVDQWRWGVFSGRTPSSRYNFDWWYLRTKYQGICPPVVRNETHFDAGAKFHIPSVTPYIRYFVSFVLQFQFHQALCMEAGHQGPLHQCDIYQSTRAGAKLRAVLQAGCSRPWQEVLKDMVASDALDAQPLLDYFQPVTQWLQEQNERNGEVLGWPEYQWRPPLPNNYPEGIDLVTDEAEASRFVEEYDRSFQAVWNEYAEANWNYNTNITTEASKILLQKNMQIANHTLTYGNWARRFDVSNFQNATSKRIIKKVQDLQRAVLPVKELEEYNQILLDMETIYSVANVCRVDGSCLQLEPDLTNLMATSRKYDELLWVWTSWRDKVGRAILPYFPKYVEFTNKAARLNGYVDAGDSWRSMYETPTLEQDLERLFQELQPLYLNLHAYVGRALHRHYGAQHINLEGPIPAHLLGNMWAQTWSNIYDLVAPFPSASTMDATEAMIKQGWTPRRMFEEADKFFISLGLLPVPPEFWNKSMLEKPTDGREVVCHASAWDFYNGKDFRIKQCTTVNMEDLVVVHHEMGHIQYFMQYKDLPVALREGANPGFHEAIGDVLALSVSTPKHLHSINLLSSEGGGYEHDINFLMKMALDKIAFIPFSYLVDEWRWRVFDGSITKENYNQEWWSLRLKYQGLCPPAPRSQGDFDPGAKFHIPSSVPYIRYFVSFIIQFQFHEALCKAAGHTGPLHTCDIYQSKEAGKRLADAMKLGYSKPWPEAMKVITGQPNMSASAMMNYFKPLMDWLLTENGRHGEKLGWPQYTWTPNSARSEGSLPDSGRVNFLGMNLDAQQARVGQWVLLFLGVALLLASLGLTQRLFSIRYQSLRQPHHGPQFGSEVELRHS
Nature of the assay: in vitro evaluation of inhibitory effects on ACE activity (method of Cushman). The format is biochemical. The settings on record: ACE isolated from rabbit lungs; for IC50: Table 1, in vitro. The method, then:
The efficacy of the compounds of the present invention can be tested by evaluating their inhibitory effects on the angiotensin converting enzyme (ACE). Using ACE isolated from rabbit lungs, in vitro evaluation of inhibitory effects on ACE activity was carried out according to the method of Cushman [Biochem. Pharmacol., 20, 1637(1971)]. […] Some of the compounds obtained in the other examples were also tested by in vitro evaluation of inhibitory effects on ACE activity and the results thus obtained are summarized in Table 1.

Assay [2] deals with spontaneously occurring hypertensive rats (SHR). In words: depressor effect after oral administration in spontaneously occurring hypertensive rats (SHR), systolic blood pressure of caudal artery. In kind it is in vivo, rat. The settings on record: 50 mg/kg oral, unanesthetized male SHR. The method, then:
The compounds of the present invention can also be tested by evaluating their depressor effects. Such evaluation was carried out by using spontaneously occurring hypertensive rats (SHR). Male rats, aged 20 weeks or more, were fasted for 17 hours. Then, under an unanesthetized condition, the systolic blood pressure of their caudal artery was nonsurgically measured before medication as well as 2,4,6 and 24 hours after medication. Test compounds were orally administered to groups of 3-5 rats showing a systolic blood pressure of 180 mmHg or above.
When the compound of Example 10 was orally administered in a dose of 50 mg/kg, the blood pressure was reduced by 26, 34 and 46 mmHg after the lapse of 2, 4 and 6 hours, respectively.

In general, IC50 refers to the concentration needed to halve the response being measured. Low readings indicate greater potency, high ones weaker potency. With `CC(NC1CSc2ccccc2N(CC(=O)O)C1=O)C(=O)O` (stereo not drawn) [Example 13, 5-carboxymethyl-3-(1-carboxyethylamino)-2,3-dihydro-1,5-benzothiazepin-4(5H)-one hydrochloride], the IC50 in assay [1] came out at 470 nM.

As to `O=C(O)CN1C(=O)C(NC(CCc2ccccc2)C(=O)O)CSc2ccccc21` (stereo not drawn) [Example 8, 3-(1-carboxy-3-phenylpropylamino)-5-carboxymethyl-2,3-dihydro-1,5-benzothiazepin-4(5H)-one], in assay [1] (0.01 μM, read-out: inhibited ACE activity), the inhibition at 0.01 µM was determined as 14.8%. Besides, the inhibition at 0.1 µM in assay [1] (0.1 μM, read-out: inhibited ACE activity) is 77.8%.

Compound `CCOC(=O)C(C)NC1CSc2ccccc2N(CC(=O)O)C1=O` (stereo not drawn) [Example 12, 5-carboxymethyl-3-(1-ethoxycarbonylethylamino)-2,3-dihydro-1,5-benzothiazepin-4(5H)-one hydrochloride] returned an IC50 in assay [1] of 7000 nM.

In assay [1], `CCOC(=O)CNC1CSc2ccccc2N(CC(=O)O)C1=O` (stereo not drawn) [Example 15, 5-carboxymethyl-3-ethoxycarbonylmethylamino-2,3-dihydro-1,5-benzothiazepin-4(5H)-one hydrochloride] returned an IC50 above 100000 nM.

`CCCCCCCCC(NC1CSc2ccccc2N(CC(=O)O)C1=O)C(=O)O` (stereo not drawn) [Example 19, 5-carboxymethyl-3-(1-carboxynonylamino)-2,3-dihydro-1,5-benzothiazepin-4(5H)-one] yielded an IC50 in assay [1] of 10 nM. That is a double-digit nanomolar value.

`O=C(O)CNC1CSc2ccccc2N(CC(=O)O)C1=O` (stereo not drawn) [Example 16, 5-carboxymethyl-3-carboxymethylamino-2,3-dihydro-1,5-benzothiazepin-4(5H)-one hydrochloride] showed an IC50 in assay [1] of 8200 nM.

With `CCCCCCCCC(NC1CSc2ccccc2N(CC(=O)O)C1=O)C(=O)OCC` (stereo not drawn) [Example 18, 5-carboxymethyl-3-(1-ethoxycarbonylnonylamino)-2,3-dihydro-1,5-benzothiazepin-4(5H)-one], it took 160 nM to reach half-maximal inhibition in assay [1] (IC50).

On to `CCOC(=O)C(CCc1ccccc1)NC1CSc2ccccc2N(CC(=O)O)C1=O.Cl` (stereo not drawn) [Example 10, 5-carboxymethyl-3-(1-ethoxycarbonyl-3-phenylpropylamino)-2,3-dihydro-1,5-benzothiazepin-4(5H)-one hydrochloride], for which, in assay [2] (24 hours), the “depressor effect, persistence” value is reported as “found to persist even after 24 hours”. The “blood pressure was reduced by” value worked out at 26 mmHg in assay [2] (after 2 hours), 34 mmHg in assay [2] (after 4 hours) and 46 mmHg in assay [2] (after 6 hours).
